Among the data in patent publication US11345694B2, “Antibacterial compounds” (DISCUVA LTD., priority 2017, dated 2022) are MIC and IC50 values, retold here.

In general, MIC refers to the lowest concentration found to suppress growth. High values mean a less susceptible organism, low ones a more susceptible organism. For orientation: IC50 means the point on the concentration scale where inhibition reaches its midpoint.

For test [1], the system named is K. pneumoniae NCTC 13438 (KP1). Nature of the test: MIC broth microdilution. The test is classed as cell-based, Klebsiella pneumoniae. The following applies: Klebsiella pneumoniae, NCTC13438. The protocol:
(§1) Minimum Inhibitory Concentrations (MICs) versus planktonic bacteria are determined by the broth microdilution procedure according to the guidelines of the Clinical and Laboratory Standards Institute (Clinical and Laboratory Standards Institute. Methods for Dilution Antimicrobial Susceptibility Tests for Bacteria That Grow Aerobically; Approved Standard-tenth Edition. CLSI document M07-A10, 2015). The broth dilution method involves a two-fold serial dilution of compounds in 96-well microtitre plates, giving a final concentration range of 0.39-200 μM and a maximum final concentration of 2% DMSO. The bacterial strains tested include Escherichia coli K12 (EC), E. coli NCTC 13441 (UPEC), Staphylococcus aureus ATCC 35556 (SA), Acinetobacter baumannii ATCC 17978 (AB), Pseudomonas aeruginosa ATCC 33359 (PA), Enterobacter cloacae DSM 30054 (Ed), Serratia marcescens SL1344 (Sm), Salmonella typhimurium XNAA5 (St), Klebsiella pneumoniae ATCC 10031 (KP2), K. pneumoniae NCTC 13438 (KP1), K. pneumoniae ATCC 700603 (KP3), Klebsiella pneumoniae ATCC 51504 (KP4), K. pneumoniae H154680676 (KP5), K. pneumoniae H154020667 (KP6), K. pneumoniae H154640784 (KP7), K. pneumoniae H154600588 (KP8), K. pneumoniae H154300688 (KP9), K. pneumoniae H151440671 (KP10). Strains are grown in cation-adjusted Müller-Hinton broth or on Luria Bertoni agar at 37° C. in an ambient atmosphere. The MIC is determined as the lowest concentration of compound that inhibits growth following a 20-24 hour incubation period.
(Dilution methods test growth across graded concentrations, often in twofold steps.)

The test system of test [2] is human hepatocarcinoma cell line ATCC HB-8065 (HepG2). Nature of the test: Human cell viability (CellTiter-Glo). The test is classed as cell-based. The note with it: Homo sapiens; HepG2 cells, 24 h incubation, CellTiter-Glo luminescence, 0.2-100 μM; read-out: IC50 values against the HepG2 cell line. As to the method:
Compounds are assessed for potential non-specific cytotoxic effects against the human hepatocarcinoma cell line ATCC HB-8065 (HepG2). HepG2 cells are seeded at 20,000 cells/well in 96-well microtitre plates in minimal essential medium (MEM) supplemented with a final concentration of 10% FBS. After 24 h, compound dilutions are prepared in MEM supplemented with a final concentration of 1% FBS, and added to the cells. Compounds are tested in two-fold serial dilutions over a final concentration range of 0.2-100 μM in a final DMSO concentration of 1% vol/vol. Thioridazine is used as a positive control. Cells are incubated with compound at 37° C. and 5% CO2 for a further 24 h, after which time the CellTiter-Glo reagent (Promega) is added. Luminescence is measured on a Perkin Elmer Envision plate reader. Data are analysed using a 4 parameter logistic regression to determine the concentration of compound that inhibits cell viability by fifty percent (IC50).
For orientation: Cellular ATP, detected with luciferase, serves as a proxy for viable cell number.

The test system of test [3] is E. coli NCTC 13441 (UPEC). Nature of the test: MIC broth microdilution. The test is classed as cell-based, Escherichia coli. The note with it: Escherichia coli, NCTC13441. The protocol:
as §1

In test [4] the test system is Klebsiella pneumoniae ATCC 10031 (KP2). Nature of the test: MIC broth microdilution. The test is classed as cell-based. The following applies: ATCC10031. As to the method:
as §1

The subject of test [5] is Acinetobacter baumannii ATCC 17978 (AB). Nature of the test: MIC broth microdilution. The test is classed as cell-based. The note with it: ATCC17978. The protocol:
as §1

Test [6] concerns Staphylococcus aureus ATCC 35556 (SA). Nature of the test: MIC broth microdilution. Format: cell-based. The following applies: ATCC35556. The protocol: as §1
Test [7] relates to Escherichia coli K12 (EC). Nature of the test: MIC broth microdilution. Format: cell-based. As to the method:
as §1

The test system of test [8] is Pseudomonas aeruginosa ATCC 33359 (PA). Kind of test: MIC broth microdilution. The note with it: ATCC33359. Format: cell-based. As to the method:
as §1

Structures are written as SMILES. Converted amounts (≈) assume the structure as drawn.

Take `Cc1cc(-c2[nH]c(Cl)nc2-c2ccc3c(c2)OCCO3)ccn1` [Example 83, 4-(2-Chloro-4-(2,3-dihydrobenzo[b][1,4]dioxin-6-yl)-1H-imidazol-5-yl)-2-methylpyridine]: the MIC in test [1] was greater than 100 µM; in test [3], 1 to 10 µM (≈ 0.328 to 3.28 µg/mL); in test [4] it was no more than 1 µM; in test [5], greater than 100 µM; in test [6], greater than 100 µM; in test [7], 1 to 10 µM (≈ 0.328 to 3.28 µg/mL). This compound also registered an MIC in test [8] greater than 100 µM. Moreover, in test [2], the IC50 is greater than 100 µM.

`Cc1cc(-c2[nH]c(CN)nc2-c2ccc3c(c2)NCCO3)ccn1` [Compound 88]: the MIC was 10 to 100 µM (≈ 3.21 to 32.1 µg/mL) in test [1]; 1 to 10 µM (≈ 0.321 to 3.21 µg/mL) in test [3]; no more than 1 µM in test [4]; greater than 100 µM in test [5]; greater than 100 µM in test [6]; 1 to 10 µM (≈ 0.321 to 3.21 µg/mL) in test [7]. In test [8], the MIC is greater than 100 µM. Moreover, the IC50 in test [2] was greater than 100 µM.

Regarding `COc1ccc(-c2nc(N)[nH]c2-c2ccnc(C)c2)cn1` [Example 2, 4-(6-Methoxypyridin-3-yl)-5-(2-methylpyridin-4-yl)-1H-imidazol-2-amine], the MIC in test [1] was 10 to 100 µM (≈ 2.81 to 28.1 µg/mL); in test [3] it was 1 to 10 µM (≈ 0.281 to 2.81 µg/mL); in test [4] it was no more than 1 µM; in test [5] it was greater than 100 µM; in test [6] it was greater than 100 µM; in test [7] it was 1 to 10 µM (≈ 0.281 to 2.81 µg/mL). In addition, the MIC in test [8] was greater than 100 µM. Moreover, the IC50 in test [2] was greater than 100 µM.

In the case of `Cc1cc(-c2[nH]c(N)nc2-c2ccc3c(c2)NCC(=O)O3)ccn1` [Example 53, 6-(2-Amino-5-(2-methylpyridin-4-yl)-1H-imidazol-4-yl)-3,4-dihydro-2H-benzo[b][1,4]oxazin-2-one], the MIC in test [1] was 10 to 100 µM (≈ 3.21 to 32.1 µg/mL); in test [3], 1 to 10 µM (≈ 0.321 to 3.21 µg/mL); in test [4], no more than 1 µM; in test [5] it was greater than 100 µM; in test [6] it was greater than 100 µM; in test [7] it was 1 to 10 µM (≈ 0.321 to 3.21 µg/mL). Besides, in test [8], the MIC is greater than 100 µM. Besides, the IC50 in test [2] was greater than 100 µM.

For `COc1cccc(-c2nc(N)[nH]c2-c2ccnc(C)c2)c1` [Example 25, 4-(3-Methoxyphenyl)-5-(2-methylpyridin-4-yl)-1H-imidazol-2-amine], the MIC was 10 to 100 µM (≈ 2.8 to 28 µg/mL) in test [1]; 10 to 100 µM (≈ 2.8 to 28 µg/mL) in test [3]; no more than 1 µM in test [4]; greater than 100 µM in test [5]; greater than 100 µM in test [6]; 10 to 100 µM (≈ 2.8 to 28 µg/mL) in test [7]. This compound also had an MIC in test [8] greater than 100 µM. Further, in test [2], the IC50 was greater than 100 µM.

As to `Cc1cc(-c2[nH]c(N(C)C)nc2-c2ccc3c(c2)OCCO3)ccn1` [Example 75, 4-(2,3-Dihydrobenzo[b][1,4]dioxin-6-yl)-N,N-dimethyl-5-(2-methylpyridin-4-yl)-1H-imidazol-2-amine], the MIC is greater than 100 µM in test [1]; 10 to 100 µM (≈ 3.36 to 33.6 µg/mL) in test [3]; 1 to 10 µM (≈ 0.336 to 3.36 µg/mL) in test [4]; greater than 100 µM in test [5]; greater than 100 µM in test [6]; 10 to 100 µM (≈ 3.36 to 33.6 µg/mL) in test [7]. Moreover, the MIC in test [8] is greater than 100 µM. Besides, the IC50 in test [2] was greater than 100 µM.

Consider `Cc1cc(-c2nc(N)[nH]c2-c2ccc(O)c(F)c2)ccn1` [Example 15, 4-(2-Amino-4-(2-methylpyridin-4-yl)-1H-imidazol-5-yl)-2-fluorophenol], for which the MIC was 10 to 100 µM (≈ 2.84 to 28.4 µg/mL) in test [1]; 1 to 10 µM (≈ 0.284 to 2.84 µg/mL) in test [3]; no more than 1 µM in test [4]; greater than 100 µM in test [5]; greater than 100 µM in test [6]; 10 to 100 µM (≈ 2.84 to 28.4 µg/mL) in test [7]. The compound also returned a minimum inhibitory concentration (MIC) in test [8] greater than 100 µM. In test [2], the concentration for half-maximal inhibition (IC50) was greater than 100 µM.

As for `Cc1cc(-c2nc(N)[nH]c2-c2ccc3c(c2)N(CCO)CCO3)ccn1` [Example 90, 2-(6-(2-Amino-4-(2-methylpyridin-4-yl)-1H-imidazol-5-yl)-2,3-dihydro-4H-benzo[b][1,4]oxazin-4-yl)ethan-1-ol], the MIC was 1 to 10 µM (≈ 0.351 to 3.51 µg/mL) in test [1]; no more than 1 µM in test [3]; no more than 1 µM in test [4]; greater than 100 µM in test [5]; greater than 100 µM in test [6]; 1 to 10 µM (≈ 0.351 to 3.51 µg/mL) in test [7]. The MIC in test [8] was greater than 100 µM. In addition, in test [2], the 50% inhibitory concentration (IC50) is greater than 100 µM.
